Reference: PMC8501045, “Addressing MRSA infection and antibacterial resistance with peptoid polymers” (Nature Communications, 2021)

Tests used:
[1] = system: S. aureus USA300 LAC; experiment: Mouse peritonitis model, CFU in organs, blood and IP fluid, MRSA; assay type: in vivo; settings: Figure 6d, spleen
Procedure: (§1) This infection model was conducted according to the previously reported method with slight modification. Female ICR mice (21–24 g) were used for MRSA-infected peritonitis model. Mice were infected by intraperitoneal administration of 0.2 mL of S. aureus USA300 LAC in saline (7.5 × 10^8 CFU/mL) supplemented with 5% mucin. […] Once the infected mice died, peritoneal lavage was performed by injecting 3.0 mL of saline into the peritoneal cavity and massaging the abdomen. Subsequently, the abdomen was opened and peritoneal fluid was recovered from the abdominal cavity for analysis. Blood samples were collected through cardiac puncture for analysis of CFU/mL. Then, different organs including the heart, liver, spleen, lung, and kidney were removed and homogenized in 0.1% TX-100 solution. The homogenate was serially diluted for plating on LB agar. After incubation at 37 °C for 14 h, the number of colonies on the plate was counted to calculate the bacteria burden. Surviving mice were euthanized at 48 h after infection. The blood, peritoneal fluid, and organs were collected for the determination of bacterial colonies. […] For the pretreatment group, mice were sacrificed and tissues were harvested to determine the CFU at 1 h post infection.

[2] = system: S. haemolyticus 0202; experiment: Mouse peritonitis model, CFU in organs, blood and IP fluid, S. haemolyticus; assay type: in vivo; settings: Figure 6f
Procedure: as §1
For experiments of S. epidermidis and S. haemolyticus infections, female ICR mice (22–24 g) were rendered neutropenic by treatment with 150 and 100 mg/kg of cyclophosphamide intraperitoneally at 4 days and 1 day prior to infection. Mice were infected by intraperitoneal administration of 0.2 mL of S. epidermidis 9397 (5.1 × 10^9 CFU/mL) or S. haemolyticus 0202 (2.6 × 10^9 CFU/mL) in saline. Other experiment conditions were similar to those in MRSA peritonitis model.

CN[C@H](CC(C)C)C(=O)N[C@H]1C(=O)N[C@@H](CC(N)=O)C(=O)N[C@H]2C(=O)N[C@H]3C(=O)N[C@H](C(=O)N[C@H](C(=O)O)c4cc(O)cc(O)c4-c4cc3ccc4O)[C@H](O)c3ccc(c(Cl)c3)Oc3cc2cc(c3O[C@@H]2O[C@H](CO)[C@@H](O)[C@H](O)[C@H]2O[C@H]2C[C@](C)(N)[C@H](O)[C@H](C)O2)Oc2ccc(cc2Cl)[C@H]1O [Vancomycin]
Log10(CFU/g Spleen) ([1]; individual mouse 5 of 6): 4.222 Log10(CFU/g) | Log10(CFU/g Spleen) ([1]; individual mouse 6 of 6): 4.204 Log10(CFU/g) | Log10(CFU/mL IP fluid) ([2]; individual mouse 1 of 6): 3.226 Log10(CFU/mL) | Log10(CFU/mL IP fluid) ([2]; individual mouse 2 of 6): 4.392 Log10(CFU/mL) | Log10(CFU/mL IP fluid) ([2]; individual mouse 3 of 6): 3.853 Log10(CFU/mL) | Log10(CFU/mL IP fluid) ([2]; individual mouse 4 of 6): 4.647 Log10(CFU/mL) | Log10(CFU/mL IP fluid) ([2]; individual mouse 5 of 6): 4.595 Log10(CFU/mL) | Log10(CFU/mL IP fluid) ([2]; individual mouse 6 of 6): 4.235 Log10(CFU/mL) | Log10(CFU/mL Blood) ([2]; individual mouse 1 of 6): 3.398 Log10(CFU/mL) | Log10(CFU/mL Blood) ([2]; individual mouse 2 of 6): 3.213 Log10(CFU/mL) | Log10(CFU/mL Blood) ([2]; individual mouse 3 of 6): 2.602 Log10(CFU/mL) | Log10(CFU/mL Blood) ([2]; individual mouse 4 of 6): 3.336 Log10(CFU/mL) | Log10(CFU/mL Blood) ([2]; individual mouse 5 of 6): 2.62 Log10(CFU/mL) | Log10(CFU/mL Blood) ([2]; individual mouse 6 of 6): 0 Log10(CFU/mL) | Log10(CFU/g Heart) ([2]; individual mouse 1 of 6): 4.437 Log10(CFU/g) | Log10(CFU/g Heart) ([2]; individual mouse 2 of 6): 5.504 Log10(CFU/g) | Log10(CFU/g Heart) ([2]; individual mouse 3 of 6): 4.593 Log10(CFU/g) | Log10(CFU/g Heart) ([2]; individual mouse 4 of 6): 5.198 Log10(CFU/g) | Log10(CFU/g Heart) ([2]; individual mouse 5 of 6): 4.862 Log10(CFU/g) | Log10(CFU/g Heart) ([2]; individual mouse 6 of 6): 5.445 Log10(CFU/g) | Log10(CFU/g Kidney) ([2]; individual mouse 1 of 6): 4.477 Log10(CFU/g) | Log10(CFU/g Kidney) ([2]; individual mouse 2 of 6): 5.326 Log10(CFU/g) | Log10(CFU/g Kidney) ([2]; individual mouse 3 of 6): 5 Log10(CFU/g) | Log10(CFU/g Kidney) ([2]; individual mouse 4 of 6): 5.151 Log10(CFU/g) | Log10(CFU/g Kidney) ([2]; individual mouse 5 of 6): 5.103 Log10(CFU/g) | Log10(CFU/g Kidney) ([2]; individual mouse 6 of 6): 6.713 Log10(CFU/g) | Log10(CFU/g Liver) ([2]; individual mouse 1 of 6): 4.477 Log10(CFU/g) | Log10(CFU/g Liver) ([2]; individual mouse 2 of 6): 5.908 Log10(CFU/g) | Log10(CFU/g Liver) ([2]; individual mouse 3 of 6): 4.978 Log10(CFU/g) | Log10(CFU/g Liver) ([2]; individual mouse 4 of 6): 5.097 Log10(CFU/g) | Log10(CFU/g Liver) ([2]; individual mouse 5 of 6): 5.108 Log10(CFU/g) | Log10(CFU/g Liver) ([2]; individual mouse 6 of 6): 5.286 Log10(CFU/g) | Log10(CFU/g Lung) ([2]; individual mouse 1 of 6): 5.45 Log10(CFU/g) | Log10(CFU/g Lung) ([2]; individual mouse 2 of 6): 5.572 Log10(CFU/g) | Log10(CFU/g Lung) ([2]; individual mouse 3 of 6): 6.099 Log10(CFU/g) | Log10(CFU/g Lung) ([2]; individual mouse 4 of 6): 5.247 Log10(CFU/g) | Log10(CFU/g Lung) ([2]; individual mouse 5 of 6): 5.56 Log10(CFU/g) | Log10(CFU/g Lung) ([2]; individual mouse 6 of 6): 6.002 Log10(CFU/g) | Log10(CFU/g Spleen) ([2]; individual mouse 1 of 6): 6.652 Log10(CFU/g) | Log10(CFU/g Spleen) ([2]; individual mouse 2 of 6): 7.228 Log10(CFU/g) | Log10(CFU/g Spleen) ([2]; individual mouse 3 of 6): 6.728 Log10(CFU/g) | Log10(CFU/g Spleen) ([2]; individual mouse 4 of 6): 6.799 Log10(CFU/g) | Log10(CFU/g Spleen) ([2]; individual mouse 5 of 6): 6.226 Log10(CFU/g) | Log10(CFU/g Spleen) ([2]; individual mouse 6 of 6): 6.995 Log10(CFU/g)
